The values below come from PubChem BioAssay (NCI).

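All cell lines were grown in 96-well plates and treated with compound for 48 hours. At the TGI there is no net growth.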

Test systems include SNB-75 CNS; NCI-H226 lung; NCI-H23 lung; HOP-92 NSCLC; SK-MEL-28 melanoma; ACHN renal; SW-620 colon; HCT-15 colon; NCI-H460 lung; RXF 393 renal.
Common to all, as to test: growth of human tumour cells (NCI), 48 h

For the compound `COC(c1ccsc1)C(C#N)(C#N)N=Cc1ccsc1` (stereo not given), the TGI turned out to be 29.9 µM in the assay on SNB-75 CNS; 54.9 µM in the assay with NCI-H226 lung; 26.2 µM in the assay on NCI-H23 lung; 27.1 µM in the assay on HOP-92 NSCLC; 33.1 µM with SK-MEL-28 melanoma; 54.6 µM in the assay with ACHN renal. Moreover, the TGI with SW-620 colon was 28.4 µM; in the assay on HCT-15 colon it was 25.9 µM; in the assay on NCI-H460 lung, 45.4 µM; with RXF 393 renal, 27 µM.
In the case of `COc1ccc(C2SC(N)=Nc3c2c(C)nn3C(=O)c2ccncc2)cc1` (stereo not given), the TGI with SNB-75 CNS, in the assay with NCI-H226 lung, with NCI-H23 lung, in the assay with HOP-92 NSCLC, in the assay with SK-MEL-28 melanoma and in the assay on ACHN renal was above 100 µM in each case. Also, the TGI in the assay with SW-620 colon, in the assay with HCT-15 colon, in the assay with NCI-H460 lung and in the assay on RXF 393 renal was above 100 µM each time.
`CCOC(=O)C(=[N+]=[N-])C(=O)C[N+]12CCN(CC1)CC2`: the TGI in the assay with SNB-75 CNS, in the assay with NCI-H226 lung, with NCI-H23 lung, in the assay on HOP-92 NSCLC, in the assay on SK-MEL-28 melanoma and with ACHN renal was above 100 µM in each case. Moreover, the TGI in the assay on SW-620 colon, with HCT-15 colon, with NCI-H460 lung and in the assay on RXF 393 renal was above 100 µM in each case.
In the case of `COc1c(-c2cc(C)c(Cl)c(=O)[nH]2)c(O)c(OC)c2occc12`, the TGI in the assay with SNB-75 CNS, in the assay with NCI-H226 lung, with NCI-H23 lung, in the assay on HOP-92 NSCLC, with SK-MEL-28 melanoma and in the assay with ACHN renal was above 100 µM in each case. For the same compound, the TGI in the assay with SW-620 colon, with HCT-15 colon, with NCI-H460 lung and with RXF 393 renal was above 100 µM each time.
For `CCCC1NC(C#N)(C#N)C(CCC)NC1(C#N)C#N` (stereo not given), the TGI with SNB-75 CNS is above 41.1 µM; with NCI-H226 lung, 81.1 µM; with NCI-H23 lung it was above 51.3 µM; in the assay on HOP-92 NSCLC, above 32.4 µM; in the assay on SK-MEL-28 melanoma it was above 100 µM; with ACHN renal, above 100 µM. Besides, the TGI is above 100 µM with SW-620 colon, above 39.2 µM in the assay on HCT-15 colon, above 100 µM with NCI-H460 lung and above 66.9 µM in the assay on RXF 393 renal.
As for `Nn1c(Cc2ccc(Cl)cc2)n[nH]c1=O`, the TGI in the assay on SNB-75 CNS, with NCI-H226 lung, in the assay with NCI-H23 lung, in the assay on HOP-92 NSCLC, in the assay with SK-MEL-28 melanoma and in the assay with ACHN renal was above 100 µM each time. Besides, the TGI in the assay with SW-620 colon, in the assay on HCT-15 colon, in the assay with NCI-H460 lung and with RXF 393 renal was above 100 µM each time.
In the case of `Cc1cn(C2CC(O)C(CO)C2C)c(=O)[nH]c1=O` (stereo not given), the TGI with SNB-75 CNS, with NCI-H226 lung, in the assay on NCI-H23 lung, in the assay on HOP-92 NSCLC, with SK-MEL-28 melanoma and with ACHN renal was above 100 µM in each case. The TGI with SW-620 colon, in the assay on HCT-15 colon, in the assay with NCI-H460 lung and in the assay on RXF 393 renal was above 100 µM each time.
Consider `Cc1cccc2c1C(=O)C1(Cc3ccccc3C1=O)C2` (stereo not given), for which the TGI with SNB-75 CNS, in the assay on NCI-H226 lung, with NCI-H23 lung, in the assay on HOP-92 NSCLC, with SK-MEL-28 melanoma and in the assay on ACHN renal was above 100 µM each time. In addition, the TGI with SW-620 colon, with HCT-15 colon, in the assay with NCI-H460 lung and with RXF 393 renal was above 100 µM throughout.
For `CC1(C)C2CCC1(CS(=O)(=O)Nc1ccccc1)C(=O)C2` (stereo not given), the TGI with SNB-75 CNS, with NCI-H226 lung, in the assay with NCI-H23 lung, in the assay with HOP-92 NSCLC, with SK-MEL-28 melanoma and in the assay on ACHN renal was above 100 µM throughout. In addition, the TGI with SW-620 colon, in the assay on HCT-15 colon, in the assay with NCI-H460 lung and with RXF 393 renal was above 100 µM throughout.
Turning to `CCNC(=S)N/N=C/c1cc(OC)ccc1O`, the TGI with SNB-75 CNS, in the assay on NCI-H226 lung, with NCI-H23 lung, in the assay on HOP-92 NSCLC, with SK-MEL-28 melanoma and with ACHN renal was above 100 µM in each case. Moreover, the TGI in the assay with SW-620 colon, with HCT-15 colon, in the assay on NCI-H460 lung and in the assay on RXF 393 renal was above 100 µM throughout.
With `CCSSCS(C)(=O)=O`, the TGI in the assay with SNB-75 CNS was 72.6 µM; in the assay on NCI-H226 lung, 96.4 µM; in the assay on NCI-H23 lung, 98 µM; with HOP-92 NSCLC, 73.5 µM; in the assay on SK-MEL-28 melanoma it was above 100 µM; in the assay with ACHN renal it was above 100 µM. The TGI is above 100 µM in the assay with SW-620 colon, 32.9 µM in the assay with HCT-15 colon, above 100 µM with NCI-H460 lung and 49.5 µM with RXF 393 renal.
Consider `C/C(O)=C/c1nc2ccccc2nc1/C=C(/C)O`, for which the TGI with SNB-75 CNS is 63.3 µM; in the assay with NCI-H226 lung, 61.3 µM; in the assay on NCI-H23 lung, above 100 µM; with HOP-92 NSCLC, 66.2 µM; in the assay on SK-MEL-28 melanoma, above 100 µM; in the assay with ACHN renal it was 47.7 µM. In addition, the TGI with SW-620 colon was above 100 µM; in the assay with HCT-15 colon, above 100 µM; with NCI-H460 lung, 34.4 µM; with RXF 393 renal, 65.2 µM.
In the case of `N#CCCNCCN(CCN(C(=O)Nc1ccccc1)c1ccccc1)C(=O)Nc1ccccc1`, the TGI is above 100 µM in the assay on SNB-75 CNS; above 100 µM with NCI-H226 lung; above 100 µM with NCI-H23 lung; above 100 µM in the assay on HOP-92 NSCLC; 67.3 µM in the assay with SK-MEL-28 melanoma; above 100 µM in the assay on ACHN renal. Moreover, the TGI in the assay with SW-620 colon, with HCT-15 colon, in the assay with NCI-H460 lung and in the assay with RXF 393 renal was above 100 µM each time.
`[O-][n+]1onc2c3nn(-c4ccccc4)nc3ccc21`: the TGI in the assay on SNB-75 CNS, with NCI-H226 lung, in the assay on NCI-H23 lung, in the assay on HOP-92 NSCLC, in the assay on SK-MEL-28 melanoma and in the assay on ACHN renal was above 100 µM each time. Also, the TGI in the assay with SW-620 colon, with HCT-15 colon, in the assay on NCI-H460 lung and in the assay on RXF 393 renal was above 100 µM throughout.
